Measured values from patent US7300927B2, “Method for treating or preventing Alzheimer's disease” (priority 1997, dated 2007).

Experiments:
[1] = test system: SH-Sy5y cells; assay: Neuritic sprouting and neuronal differentiation in SH-Sy5y cells; type: cell-based
Excerpt: (§1) Neuritic sprouting and neuronal differentiation were induced in PNET2 and SH-Sy5y cells by insulin, PMA, or RA stimulation. […] Thus, expression of the immature or fetal forms of NTP are regulated by mechanisms and growth factors distinct from those involved in modulating expression of the 21 kD and 26 kD NTP molecules. Therefore, expression of fetal NTP molecules/genes can be mediated through the IRS-1 cascade, whereas expression of adult brain/AD-associated NTP genes can be regulated mainly through protein kinase C pathways.

[2] = test system: PNET2 cells; assay: Neuritic sprouting and neuronal differentiation in PNET2 cells; type: cell-based; conditions: for NTP species expression associated with neuritic growth/sprouting: PNET2 and SH-Sy5y cells (not separated); for neuritic sprouting and neuronal differentiation: PNET2 cells
Excerpt: as §1

[3] = test system: PNET2 cells; assay: Insulin stimulated differentiation and NTP expression in PNET2 cells; type: cell-based
[4] = test system: PNET1 cells; assay: Insulin responsiveness, NTP modulation and signal transduction in PNET1 cells; type: cell-based
Excerpt: Insulin is an important mediator of growth and differentiation in CNS neurons.
Correspondingly, the insulin-stimulated association between PI3 kinase and phosphorylated IRS-1 was also impaired in PNET1 cells. In essence, impaired insulin-mediated tyrosyl phosphorylation of IRS-1 in PNET1 cells halted activation of the insulin signal transduction cascade, and subsequent events leading to modulated gene (NTP) expression. […] The results were confirmed by absent association between PI3 kinase and IRS-1-PY in PNET1 cells after insulin stimulation.

[5] = test system: mice; conditions: 13 month old mice, administered directly to the brains; cited from earlier work

## CC1=C(/C=C/C(C)=C/C=C/C(C)=C/C(=O)O)C(C)(C)CCC1 [RA]
[1]
  neuritic sprouting and neuronal differentiation: induced
[2]
  NTP species expression associated with neuritic growth/sprouting: modulated expression of the 21 kD and 26 kD NTP species
  neuritic sprouting and neuronal differentiation: induced

## CCCCCCCCCCCCCC(=O)O[C@@H]1[C@@H](C)[C@@]2(O)[C@@H](C=C(CO)C[C@]3(O)C(=O)C(C)=C[C@@H]23)[C@@H]2C(C)(C)[C@]12OC(C)=O [PMA]
[1]
  neuritic sprouting and neuronal differentiation: induced
[2]
  NTP species expression associated with neuritic growth/sprouting: modulated expression of the 21 kD and 26 kD NTP species
  neuritic sprouting and neuronal differentiation: induced

## Insulin: Insulin, an important mediator of growth and differentiation in CNS neurons
[1]
  neuritic sprouting and neuronal differentiation: induced
[3]; following the transient increases
  synthesis and steady state levels of all five NTP species: sustained increases
[3]; insulin stimulated differentiation
  levels of the 39 kD, 18 kD and 15 kD NTP species: rapid (within 10 minutes) but transient increases
[3]; insulin stimulation
  phosphorylation of IRS-1, up-regulation of NTP, neuronal differentiation: responded to insulin stimulation with phosphorylation of IRS-1, up-regulation of NTP, and neuronal differentiation
[2]
  NTP species expression associated with neuritic growth/sprouting: increased expression of the fetal brain and PNET-dominant forms of NTP (15 kD and 18 kD)
  neuritic sprouting and neuronal differentiation: induced
[4]
  induction of differentiation: failure of insulin to induce differentiation
  insulin modulation of NTP: absent insulin modulation of NTP
  insulin receptor phosphorylation: normal insulin receptor phosphorylation
  insulin-mediated tyrosyl phosphorylation of IRS-1: impaired
  insulin-stimulated association between PI3 kinase and phosphorylated IRS-1: also impaired

## O=C(CCn1cnc2c(=O)[nH]cnc21)Nc1ccc(C(=O)[O-])cc1.[K+] [AIT-082]
[5]
  animals showing a delay of about two months in any memory deficit: about 50%
  animals that never develop a memory deficit: 50%
